# Results reported in PubChem BioAssay (NCI).
# Where “and” joins values, the source holds several entries; their conditions need not be identical. Equal values may be shown once.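 Cultured in 96-well plates, cells were exposed to test compound for 48 hours across five concentrations. GI50 marks 50% less growth. At the TGI there is no net growth.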 Calls of active or inactive are those of the source. Cut-off read from the data, not from the text of the source: active = GI50 below about 0.43 µM; inactive = the rest.
# Assays:
# Test in all cases: NCI-60 cell line screen, 48 h
# A549 NSCLC = system: A549 NSCLC
# 786-0 renal = system: 786-0 renal
# NCI-H460 lung = system: NCI-H460 lung
# T-47D breast = system: T-47D breast
# MCF7 breast = system: MCF7 breast
# U251 CNS = system: U251 CNS
# HOP-18 NSCLC = system: HOP-18 NSCLC
# SNB-75 CNS = system: SNB-75 CNS
# M19-MEL melanoma = system: M19-MEL melanoma
SMILES,TGI (A549 NSCLC),TGI (786-0 renal),TGI (NCI-H460 lung),TGI (T-47D breast) [µM],TGI (MCF7 breast),TGI (U251 CNS),TGI (HOP-18 NSCLC) [µM],TGI (SNB-75 CNS),TGI (M19-MEL melanoma),GI50 (A549 NSCLC),GI50 (786-0 renal),GI50 (NCI-H460 lung),GI50 (U251 CNS),GI50 (SNB-75 CNS),GI50 (M19-MEL melanoma),outcome (HOP-18 NSCLC),GI50 (HOP-18 NSCLC) [µM],GI50 (T-47D breast) [µM],GI50 (MCF7 breast) [µM]
O=Cc1ccc(-c2cccs2)s1,> 100 µM,> 100 µM,> 92.4 µM,> 100,17.6 µM,> 93.8 µM,> 100,> 100 µM,> 100 µM,–,–,–,–,–,–,–,–,–,–
COC(=O)c1c(-c2ccccc2)sc(-c2cccc3ccccc23)c1C(=O)OC,> 100 µM,> 100 µM,> 100 µM,–,–,> 100 µM,> 100,> 100 µM,> 100 µM,–,–,–,–,–,–,–,–,–,–
C=C=C(C(=O)OC)S(=O)c1ccc([N+](=O)[O-])cc1[N+](=O)[O-] (configuration not stated),> 100 µM,> 66.6 µM,> 91.2 µM,–,–,62.7 µM,98.7,> 69.7 µM,62 µM,–,–,–,–,–,–,–,–,–,–
CCOC(=O)C(=O)Nc1c(C(C)C)cccc1C(C)C,> 100 µM,> 100 µM,> 100 µM,–,–,> 100 µM,> 100,> 100 µM,> 100 µM,–,–,–,–,–,–,–,–,–,–
C=C(C=O)CCCC(C)[C@@H]1CCC23CC12CCC1[C@@]2(C)CCC(OC(C)=O)C(C)(C)C2CC(OC2OC(COC(C)=O)C(O)C(O)C2O)[C@]13C (some centres not stated),12.5 µM,13.2 µM,16.1 µM,–,–,8.56 µM,16.1,11.4 µM,–,–,–,–,–,–,–,–,–,–,–
COC(=O)c1nc(N)[nH]c(=O)c1CCCCCc1c(C(=O)OC)nc(N)[nH]c1=O,> 50 µM,> 50 µM,> 50 µM,–,–,> 50 µM,> 50,> 50 µM,> 50 µM,–,–,–,–,–,–,–,–,–,–
Nc1nc(CCC(=O)Nc2cccc(C(F)(F)F)c2)cc(-c2ccc3ccccc3c2)n1,> 100 µM,> 100 µM,> 100 µM,–,–,> 100 µM,> 100,> 100 µM,> 100 µM,–,–,–,–,–,–,–,–,–,–
CCOC(=O)c1cc(/C=C/C(C)=C/C(=O)OC)n(C)c1C,> 100 µM,> 100 µM,> 100 µM,–,–,> 100 µM,–,–,> 100 µM,–,–,–,–,–,–,–,–,–,–
Cc1c(Cl)cccc1NC(=O)CC1C(=O)Nc2ccccc2S1(=O)=O (configuration not stated),33.2 µM,32.4 µM,30 µM,–,–,26.5 µM,–,32.5 µM,55.3 µM,–,–,–,–,–,–,–,–,–,–
COC(=O)C1=C(CS(=O)c2ccccc2[N+](=O)[O-])ON(C)C1c1ccccc1 (configuration not stated),> 100 µM,> 100 µM,> 100 µM,–,–,> 100 µM,> 100,84.5 µM,> 100 µM,–,–,–,–,–,–,–,–,–,–
O=[N+]([O-])c1ccc2c(c1)[O][Sn]([I])([I])[O]2,> 100 µM,> 100 µM,> 100 µM,–,–,> 100 µM,–,> 100 µM,> 100 µM,> 100 µM,> 100 µM,> 100 µM,> 100 µM,> 100 µM,85.3 µM,–,–,–,–
O=[N+]([O-])c1ccc2c(c1)[O][Sn][O]2,> 150 µg/mL,> 150 µg/mL,> 150 µg/mL,–,–,> 150 µg/mL,–,> 150 µg/mL,> 150 µg/mL,> 150 µg/mL,139 µg/mL,69.5 µg/mL,> 150 µg/mL,> 150 µg/mL,36.9 µg/mL,inactive,–,–,–
O=c1[nH]c(=O)n(C2OC3COC2C3O)cc1F (configuration not stated),> 100 µM,> 100 µM,> 100 µM,–,–,> 100 µM,> 100,> 100 µM,–,–,–,–,–,–,–,–,–,–,–
CCOC(=O)COS(=O)(=O)C(F)(F)F,> 100 µM,> 100 µM,> 100 µM,–,–,> 100 µM,> 100,> 100 µM,> 100 µM,–,–,–,–,–,–,–,–,–,–
C1=CC=C2NCCOCCNC3=CC=CC=CC3=NCCOCCN=C2C=C1,> 100 µM,> 100 µM,> 100 µM,–,–,> 100 µM,> 100,> 100 µM,> 100 µM,–,–,–,–,–,–,–,–,–,–
Cc1nn(-c2ccccc2)c(-c2ccccc2[N+](=O)[O-])c1CC#N,> 100 µM,> 100 µM,> 100 µM,–,–,–,–,> 100 µM,> 100 µM,–,–,–,–,–,–,–,–,–,–
C[N+]1(C)C/C(=C\c2ccncc2)C(=O)/C(=C/c2ccncc2)C1,> 100 µM,> 100 µM,> 100 µM,–,–,> 100 µM,> 100,> 100 µM,> 100 µM,–,–,–,–,–,–,–,–,–,–
Cc1ccc2c(c1)C(c1cccc3ccccc13)OC2=O (configuration not stated),> 100 µM,> 100 µM,> 100 µM,–,–,> 100 µM,> 100,> 100 µM,> 100 µM,–,–,–,–,–,–,–,–,–,–
O=[N+]([O-])c1nccn1COCCBr,> 100 µM,> 100 µM,> 100 µM,–,–,> 100 µM,–,> 100 µM,> 100 µM,–,–,–,–,–,–,–,–,–,–
CCN(CC)c1ccc2c(c1)Nc1cc(=C(C#N)C#N)c3ccccc3c1=N2,> 100 µM,> 100 µM,> 100 µM,–,–,> 100 µM,> 100,> 100 µM,> 100 µM,–,–,–,–,–,–,–,–,–,–

SMILES,TGI (A549 NSCLC),TGI (786-0 renal),TGI (NCI-H460 lung),TGI (T-47D breast) [µM],TGI (MCF7 breast),TGI (U251 CNS),TGI (HOP-18 NSCLC) [µM],TGI (SNB-75 CNS),TGI (M19-MEL melanoma),GI50 (A549 NSCLC),GI50 (786-0 renal),GI50 (NCI-H460 lung),GI50 (U251 CNS),GI50 (SNB-75 CNS),GI50 (M19-MEL melanoma),outcome (HOP-18 NSCLC),GI50 (HOP-18 NSCLC) [µM],GI50 (T-47D breast) [µM],GI50 (MCF7 breast) [µM]
Cc1c2cc[n+](C)cc2c(C)c2c1[nH]c1ccc(O)c(OCC(F)(F)F)c12,12.4 µM,9.35 µM,48.6 µM,–,–,7 µM,–,1.35 µM,11.8 µM,–,–,–,–,–,–,–,–,–,–
S=c1nc(-c2cccnc2)[nH][nH]1,> 100 µM,> 100 µM,> 100 µM,–,–,> 100 µM,> 100,> 100 µM,–,–,–,–,–,–,–,–,–,–,–
COc1ccc2c(c1)[n+]([O-])c(/C(C)=N/NC(=O)CC#N)c[n+]2[O-],> 100 µM,> 100 µM,> 100 µM,–,–,> 100 µM,> 100,> 100 µM,> 100 µM,–,–,–,–,–,–,–,–,–,–
CCOC(=O)[C@H]1Nc2ccc(OC)cc2C2c3ccccc3CC21 (some centres not stated),> 100 µM,> 100 µM,> 100 µM,–,–,> 100 µM,–,> 100 µM,> 100 µM,–,–,–,–,–,–,–,–,–,–
CN1C(=O)C(Cl)(C(Cl)(Cl)S(=O)(=O)O)C(=O)c2ccccc21 (configuration not stated),> 100 µM,> 100 µM,> 100 µM,–,–,> 100 µM,–,> 100 µM,> 100 µM,–,–,–,–,–,–,–,–,–,–
O=C([CH-]C(=O)C(F)(F)F)c1ccccc1.O=C([CH-]C(=O)C(F)(F)F)c1ccccc1.O=C([CH-]C(=O)C(F)(F)F)c1ccccc1.O=C([CH-]C(=O)C(F)(F)F)c1ccccc1.[Eu+3].c1ccncc1,> 100 µM,> 100 µM,43.7 µM,–,–,> 100 µM,–,> 100 µM,62.8 µM,25.6 µM,11.9 µM,5.62 µM,5.02 µM,6.71 µM,10 µM,–,–,–,–
COc1cc(Br)c(C=Nc2cccc3ccc(OS(=O)(=O)c4cccc([N+](=O)[O-])c4)cc23)cc1OC,> 100 µM,> 100 µM,> 100 µM,–,–,> 100 µM,> 100,–,> 100 µM,–,–,–,–,–,–,–,–,–,–
CCOC(=O)CC1NC(=O)CS1 (configuration not stated),> 100 µM,> 100 µM,> 100 µM,–,–,> 100 µM,> 100,> 100 µM,> 100 µM,–,–,–,–,–,–,–,–,–,–
O=c1ccc(=O)c2c(=O)c3ccccc3c(=O)c1=2,> 100 µM,> 100 µM,> 100 µM,–,–,> 100 µM,–,> 100 µM,36.8 µM,–,–,–,–,–,–,–,–,–,–
BrC1(Br)C2/C=C\CCCCC21 (configuration not stated),> 100 µM,> 100 µM,> 100 µM,–,–,> 100 µM,> 100,–,> 100 µM,–,–,–,–,–,–,–,–,–,–
N.N.N.N.N.N.O=N[O-].[Br-].[Co+3].[Co+3].[OH3+].[OH3+],> 100 µM,> 100 µM,–,–,–,–,> 100,> 100 µM,–,> 100 µM,> 100 µM,–,–,> 100 µM,–,–,51.7,–,–
CN[C@@H]1C[C@H]2O[C@@](C)([C@@H]1OC)n1c3ccccc3c3c4c(c5c6ccccc6n2c5c31)C(=O)N[C@@H]4O,0.3 µM and 2.87 µM,0.172 µM,0.3 µM and 1.47 µM,–,0.3 µM and 2.51 µM,0.3 µM and 0.333 µM,0.268,0.0143 µM and 0.0271 µM,4.99 µM,0.0328 µM,–,–,–,0.00322 µM,–,–,–,–,–
CCOc1ccccc1NC(=O)CCc1nc(=S)[nH][nH]1,> 100 µM,> 100 µM,> 100 µM,–,–,> 100 µM,> 100,–,> 100 µM,–,–,–,–,–,–,–,–,–,–
O=C1C2Cc3ccccc3CN2C(=O)N1CCN1CCCC1 (configuration not stated),> 100 µM,> 100 µM,> 100 µM,–,–,> 100 µM,–,–,> 100 µM,–,–,–,–,–,–,–,–,–,–
CCCCCCN(CCCCCC)CC(O)c1ccc2c3c(cccc13)CC2 (configuration not stated),24 µM,20.2 µM,17 µM,16.6,20.8 µM,22.4 µM,–,27.1 µM,–,10.4 µM,6.15 µM,3.36 µM,7.44 µM,13.6 µM,–,–,–,3.28,6.01
COc1cc(S(C)(=O)=O)ccc1Nc1nc2ccc(-c3ccc(NC(=O)[C@H](C)c4ccc(F)cc4)cc3)cn2n1,> 100 µM,> 100 µM,> 100 µM,> 100,> 100 µM,> 100 µM,–,> 100 µM,–,98.5 µM,> 100 µM,0.0821 µM,35.9 µM,47.1 µM,–,–,–,0.596,0.749
O=C1Nc2cccc3cc(NCC(O)CCl)cc1c23 (configuration not stated),> 100 µM,> 100 µM,> 100 µM,> 100,> 100 µM,> 100 µM,–,> 100 µM,–,–,–,–,–,–,–,–,–,–,–
O=C1CCC(O)=C1O,> 100 µM,> 100 µM,> 100 µM,–,–,> 100 µM,> 100,> 100 µM,> 100 µM,–,–,–,–,–,–,–,–,–,–
CC[C@@]1(O)C(=O)OCc2c1cc1n(c2=O)Cc2cc3cc(N)ccc3nc2-1,2.24 µM and 1.26 µM,0.208 µM and 0.027 µM,0.212 µM,–,5.73 µM,0.134 µM,> 100,0.364 µM and 0.0446 µM,0.289 µM and 0.222 µM,0.0373 µM and 0.0155 µM,0.0119 µM,0.00149 µM,0.0013 µM,–,–,–,–,0.0476,0.00165
COc1ccc(Cl)cc1Nc1nc(C(F)(F)F)ccc1C(=O)N/N=C/c1cc(OC)c(OC)c(OC)c1,6.64 µM,3.68 µM,10.1 µM,8.03,7.46 µM,15.1 µM,–,9.8 µM,–,2.64 µM,1.78 µM,2.68 µM,1.75 µM,2.19 µM,–,–,–,1.39,1.52
